In general, IC50 refers to the concentration at which inhibition is half-maximal.

Assay [1] has as its target DNA (cytosine-5)-methyltransferase 1 (Homo sapiens, UniProt P26358). Description: Inhibition of human recombinant DNMT1 expressed in baculovirus-insect cell system by scintillation counting.
The target in assay [2] is DNA (cytosine-5)-methyltransferase 3B (Homo sapiens, UniProt Q9UBC3). Put plainly: Inhibition of human recombinant DNMT3B expressed in baculovirus-insect cell system by scintillation counting.

Sequence of DNA (cytosine-5)-methyltransferase 1 (P26358 whole entry): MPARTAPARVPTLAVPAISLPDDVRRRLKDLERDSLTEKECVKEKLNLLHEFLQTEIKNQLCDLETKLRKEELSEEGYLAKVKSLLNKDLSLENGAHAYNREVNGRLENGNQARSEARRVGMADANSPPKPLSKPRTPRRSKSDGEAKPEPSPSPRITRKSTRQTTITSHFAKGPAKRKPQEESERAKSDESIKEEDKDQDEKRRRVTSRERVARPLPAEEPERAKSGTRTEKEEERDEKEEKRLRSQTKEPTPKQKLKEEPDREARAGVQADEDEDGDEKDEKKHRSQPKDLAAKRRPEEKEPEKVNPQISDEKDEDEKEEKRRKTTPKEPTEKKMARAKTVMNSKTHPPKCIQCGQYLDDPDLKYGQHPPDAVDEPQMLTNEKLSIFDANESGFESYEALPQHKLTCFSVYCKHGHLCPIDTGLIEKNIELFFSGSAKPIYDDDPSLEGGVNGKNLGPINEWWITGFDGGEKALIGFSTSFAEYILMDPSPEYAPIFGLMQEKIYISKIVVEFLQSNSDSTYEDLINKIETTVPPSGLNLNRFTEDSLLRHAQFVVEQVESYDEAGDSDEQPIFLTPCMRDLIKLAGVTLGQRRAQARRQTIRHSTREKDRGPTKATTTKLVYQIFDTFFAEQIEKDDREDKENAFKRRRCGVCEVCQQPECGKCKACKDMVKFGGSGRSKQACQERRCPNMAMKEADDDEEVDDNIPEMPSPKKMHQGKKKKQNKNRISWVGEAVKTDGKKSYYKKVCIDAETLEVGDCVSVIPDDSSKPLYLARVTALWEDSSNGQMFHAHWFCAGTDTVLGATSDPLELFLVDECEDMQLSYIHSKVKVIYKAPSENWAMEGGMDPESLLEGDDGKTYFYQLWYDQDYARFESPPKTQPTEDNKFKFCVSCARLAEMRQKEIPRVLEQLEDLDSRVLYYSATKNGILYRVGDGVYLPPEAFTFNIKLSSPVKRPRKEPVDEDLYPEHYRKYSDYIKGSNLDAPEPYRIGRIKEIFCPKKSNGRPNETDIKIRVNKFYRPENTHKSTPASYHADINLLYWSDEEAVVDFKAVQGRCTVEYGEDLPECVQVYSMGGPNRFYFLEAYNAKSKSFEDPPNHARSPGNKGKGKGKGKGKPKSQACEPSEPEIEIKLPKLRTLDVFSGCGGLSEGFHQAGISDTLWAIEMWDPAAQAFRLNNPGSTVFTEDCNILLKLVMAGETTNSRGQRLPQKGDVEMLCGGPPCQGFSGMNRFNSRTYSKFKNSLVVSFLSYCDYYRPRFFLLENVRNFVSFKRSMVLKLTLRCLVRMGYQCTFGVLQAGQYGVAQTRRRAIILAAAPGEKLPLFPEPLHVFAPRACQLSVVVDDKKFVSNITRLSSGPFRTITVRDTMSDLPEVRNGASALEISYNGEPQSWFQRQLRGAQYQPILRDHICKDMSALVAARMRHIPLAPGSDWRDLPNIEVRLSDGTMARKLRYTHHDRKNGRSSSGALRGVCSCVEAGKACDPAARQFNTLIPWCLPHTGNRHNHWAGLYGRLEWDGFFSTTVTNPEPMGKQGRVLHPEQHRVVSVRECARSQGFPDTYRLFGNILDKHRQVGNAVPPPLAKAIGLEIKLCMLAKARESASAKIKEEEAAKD

As to `O=C(O)CCCC(C(=O)O)N1C(=O)c2ccccc2C1=O` (stereo not given), the IC50 result in assay [1] and in assay [2] was “Not Active” in each case. Regarding `O=C(O)COc1ccc(C(=O)c2cc(Br)ccc2OCC(=O)O)cc1`, the values for the IC50 in assay [1] (read-out: IC50) and in assay [2] were 212 µM and “Not Active”, respectively.

Regarding `Nc1ncnc2c1ncn2[C@@H]1O[C@H](CSCC[C@H](N)C(=O)O)[C@@H](O)[C@H]1O` [S-ADENOSYLHOMOCYSTEINE], in assay [2] (read-out: IC50), the IC50 worked out at 0.25 µM.

The values above are taken from ChEMBL document CHEMBL1157722, “Novel and selective DNA methyltransferase inhibitors: Docking-based virtual screening and experimental evaluation” (Bioorg Med Chem, 2010).
